Results as given in PMC6002953 (ACS chemical neuroscience, 2017).
Like-named read-outs stand apart in the source and are kept apart here.

What was measured:
[1] = target: T1, human OX2 receptor (Homo sapiens, UniProt O43614); assay: Calcium mobilization Ke assay, OX2; format: cell-based; settings: for inhibition at 10 µM: read-out: Ke (OX2, nM) column: inhibition at 10 μM final concentration
T1 sequence (O43614 1-444): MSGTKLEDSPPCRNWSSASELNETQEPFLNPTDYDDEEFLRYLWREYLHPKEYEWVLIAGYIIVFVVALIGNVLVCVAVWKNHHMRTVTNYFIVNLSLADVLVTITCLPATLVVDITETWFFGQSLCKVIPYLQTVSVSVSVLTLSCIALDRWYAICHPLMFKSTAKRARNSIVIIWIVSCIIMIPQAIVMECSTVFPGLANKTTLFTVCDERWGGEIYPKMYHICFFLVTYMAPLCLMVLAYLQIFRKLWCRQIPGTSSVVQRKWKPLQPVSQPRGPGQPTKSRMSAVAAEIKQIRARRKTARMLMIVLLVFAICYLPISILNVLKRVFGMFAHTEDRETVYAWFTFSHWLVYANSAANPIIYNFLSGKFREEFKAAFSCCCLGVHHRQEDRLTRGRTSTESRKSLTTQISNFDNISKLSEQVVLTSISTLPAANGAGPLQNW

[2] = target: T2, human OX1 receptor (Homo sapiens, UniProt O43613); assay: Calcium mobilization Ke assay, OX1; format: cell-based; settings: for OX2/OX1: ratio of Ke values OX2/OX1
T2 sequence (O43613 1-425): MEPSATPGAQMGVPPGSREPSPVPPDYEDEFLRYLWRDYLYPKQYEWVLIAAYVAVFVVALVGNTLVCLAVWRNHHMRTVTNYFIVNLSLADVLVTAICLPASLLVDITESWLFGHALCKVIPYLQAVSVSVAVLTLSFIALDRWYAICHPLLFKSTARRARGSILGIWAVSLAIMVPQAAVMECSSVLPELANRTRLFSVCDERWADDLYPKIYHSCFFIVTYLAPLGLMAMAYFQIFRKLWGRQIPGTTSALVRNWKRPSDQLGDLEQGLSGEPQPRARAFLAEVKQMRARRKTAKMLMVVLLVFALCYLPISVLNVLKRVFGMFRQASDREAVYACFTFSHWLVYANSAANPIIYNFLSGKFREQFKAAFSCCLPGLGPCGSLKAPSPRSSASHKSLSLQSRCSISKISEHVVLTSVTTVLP

[3] = test system: OX1; settings: cited from earlier work
[4] = Ke (OX1, nM), compound appeared insurmountable during standard assay procedure, incubation increased to 1 hour

Compound	Kd [1]	Kd [2]	OX2/OX1 [2]	inhibition at 10 µM [1]	also measured
COc1cc2c(cc1N(C)C)C(Cc1cccc(N(C)C)c1)N(CC(=O)NCc1ccccc1)CC2 (centres unmarked) [Compound 42, N-Benzyl-2-[7-(dimethylamino)-1-{[3-(dimethylamino)phenyl]methyl}-6-methoxy-1,2,3,4-tetrahydroisoquinolin-2-yl]acetamide]	1360 nM	148 ± 36 nM	9.1	–	–
COc1cc2c(cc1OCC(F)(F)F)C(Cc1cccnc1)N(CC(=O)NCc1ccccc1)CC2 (centres unmarked) [Compound 19b, N-Benzyl-2-[6-methoxy-1-(pyridin-3-ylmethyl)-7-(2,2,2-trifluoroethoxy)-1,2,3,4-tetrahydroisoquinolin-2-yl]acetamide]	–	–	–	< 50%	Kd [2, 4]: > 10000 nM
CCCCOc1ccc(CC2c3cc(OS(C)(=O)=O)c(OC)cc3CCN2CC(=O)NCc2ccccc2)cc1OC (centres unmarked) [Compound 25b, 2-[(Benzylcarbamoyl)methyl]-1-[(4-butoxy-3-methoxyphenyl)methyl]-6-methoxy-1,2,3,4-tetrahydroisoquinolin-7-yl methanesulfonate]	1200 nM	5.24 ± 1 nM	229	–	–
COc1cc2c(cc1NC(C)=O)C(Cc1ccc(OC)c(OC)c1)N(CC(=O)NCc1ccccc1)CC2 (centres unmarked) [Compound 34c, N-Benzyl-2-{1-[(3,4-dimethoxyphenyl)methyl]-7-acetamido-6-methoxy-1,2,3,4-tetrahydroisoquinolin-2-yl}acetamide]	> 10000 nM	116 ± 44 nM	>86	–	–
CCCOc1cc2c(cc1OC)CCN(CC(=O)NCc1ccccc1)C2Cc1ccc(N(C)C)cc1 (centres unmarked) [Compound 12d, N-Benzyl-2-(1-{[4-(dimethylamino)phenyl]methyl}-6-methoxy-7-propoxy-1,2,3,4-tetrahydroisoquinolin-2-yl)acetamide]	> 10000 nM	173 ± 5 nM	>58	–	–
COc1cc2c(cc1OCC(F)(F)F)C(Cc1ccncc1)N(CC(=O)NCc1ccccc1)CC2 (centres unmarked) [Compound 19c, N-Benzyl-2-[6-methoxy-1-(pyridin-4-ylmethyl)-7-(2,2,2-trifluoroethoxy)-1,2,3,4-tetrahydroisoquinolin-2-yl]acetamide]	–	–	>5.4	< 50%	Kd [2, 4]: 1860 nM
CCCOc1cc2c(cc1OC)CCN(CC(=O)NCc1ccccc1)C2Cc1ccc(C(C)C)cc1 (centres unmarked) [Compound 12c, N-Benzyl-2-(6-methoxy-1-{[4-(propan-2-yl)phenyl]methyl}-7-propoxy-1,2,3,4-tetrahydroisoquinolin-2-yl)acetamide]	–	141 ± 42 nM	>70.9	< 50%	–
COc1cc(CC2c3cc(OS(C)(=O)=O)c(OC)cc3CCN2CC(=O)NCc2ccccc2)ccc1OCc1ccccc1 (centres unmarked) [Compound 25a, 2-[(Benzylcarbamoyl)methyl]-1-{[4-(benzyloxy)-3-methoxyphenyl]methyl}-6-methoxy-1,2,3,4-tetrahydroisoquinolin-7-yl methanesulfonate]	–	43 ± 18 nM	>232	< 50%	–
COc1cc2c(cc1NS(C)(=O)=O)C(Cc1ccc(OC)c(OC)c1)N(CC(=O)NCc1ccccc1)CC2 (centres unmarked) [Compound 34d, N-Benzyl-2-{1-[(3,4-dimethoxyphenyl)methyl]-7-methanesulfonamido-6-methoxy-1,2,3,4-tetrahydroisoquinolin-2-yl}acetamide]	> 10000 nM	128 ± 13 nM	>78	–	–
CCCOc1cc2c(cc1OC)CCN(CC(=O)NCc1ccccc1)C2Cc1ccc(C)c(C)c1 (centres unmarked) [Compound 12b, N-Benzyl-2-{1-[(3,4-dimethylphenyl)methyl]-6-methoxy-7-propoxy-1,2,3,4-tetrahydroisoquinolin-2-yl}acetamide]	–	28.8 ± 4.4 nM	>347	< 50%	–
CCCOc1cc2c(cc1OC)CCN(CC(=O)NCc1ccccc1)C2Cc1ccc(OCc2ccccn2)c(OC)c1 (centres unmarked) [Compound 12g, N-Benzyl-2-(6-methoxy-1-{[3-methoxy-4-(pyridin-2-ylmethoxy)phenyl]methyl}-7-propoxy-1,2,3,4-tetrahydroisoquinolin-2-yl)acetamide]	> 10000 nM	96.4 ± 34 nM	>104	–	selectivity over OX2 ([2]; OX1 over OX2, calcium mobilization assays): > 100 fold
COc1cc2c(cc1N)C(Cc1ccc(OC)c(OC)c1)N(CC(=O)NCc1ccccc1)CC2 (centres unmarked) [Compound 33, 2-{7-Amino-1-[(3,4-dimethoxyphenyl)methyl]-6-methoxy-1,2,3,4-tetrahydroisoquinolin-2-yl}-N-benzylacetamide]	> 10000 nM	494 ± 32 nM	>20	–	–
COC(=O)Nc1cc(CC2c3cc(NC(=O)OC)c(OC)cc3CCN2CC(=O)NCc2ccccc2)ccc1OC (centres unmarked) [Compound 38, Methyl N-{2-[(Benzylcarbamoyl)methyl]-6-methoxy-1-({4-methoxy-3-[(methoxycarbonyl)amino]phenyl}methyl)-1,2,3,4-tetrahydroisoquinolin-7-yl}carbamate]	592 ± 170 nM	> 10000 nM	–	–	–
CCCC(=O)Nc1cc2c(cc1OC)CCN(CC(=O)NCc1ccccc1)C2Cc1ccc(OC)c(OC)c1 (centres unmarked) [Compound 34e, N-{2-[(Benzylcarbamoyl)methyl]-1-[(3,4-dimethoxyphenyl)methyl]-6-methoxy-1,2,3,4-tetrahydroisoquinolin-7-yl}butanamide]	> 10000 nM	689 ± 73 nM	>14.5	–	–
COc1cc2c(cc1NCc1ccccc1)C(Cc1ccc(OC)c(OC)c1)N(CC(=O)NCc1ccccc1)CC2 (centres unmarked) [Compound 34b, N-Benzyl-2-[7-(benzylamino)-1-[(3,4-dimethoxyphenyl)methyl]-6-methoxy-1,2,3,4-tetrahydroisoquinolin-2-yl]acetamide]	–	352 ± 34 nM	>28	< 35%	–
CCCOc1cc2c(cc1OC)CCN(CC(=O)NCc1ccccc1)C2Cc1ccc2ccccc2c1 (centres unmarked) [Compound 12a, N-Benzyl-2-[6-methoxy-1-(naphthalen-2-ylmethyl)-7-propoxy-1,2,3,4-tetrahydroisoquinolin-2-yl]acetamide]	–	121 ± 35 nM	>82.6	< 50%	–
CCCOc1cc2c(cc1OC)CCN(CC(=O)NCc1ccccc1)C2Cc1cccc(N(C)C)c1 (centres unmarked) [Compound 12f, N-Benzyl-2-(1-{[3-(dimethylamino)phenyl]methyl}-6-methoxy-7-propoxy-1,2,3,4-tetrahydroisoquinolin-2-yl)acetamide]	–	20.6 ± 2.8 nM	>485	< 50%	–
COc1ccc(CC2c3cc(N(C)C)c(OC)cc3CCN2CC(=O)NCc2ccccc2)cc1OC (centres unmarked) [Compound 34a, N-Benzyl-2-{1-[(3,4-dimethoxyphenyl)methyl]-7-(dimethylamino)-6-methoxy-1,2,3,4-tetrahydroisoquinolin-2-yl}acetamide]	> 10000 nM	31.2 ± 3.3 nM	>321	–	–
COc1cc2c(cc1OCC(F)(F)F)C(Cc1ccccn1)N(CC(=O)NCc1ccccc1)CC2 (centres unmarked) [Compound 19a, N-Benzyl-2-[6-methoxy-1-(pyridin-2-ylmethyl)-7-(2,2,2-trifluoroethoxy)-1,2,3,4-tetrahydroisoquinolin-2-yl]acetamide]	–	–	>11	< 50%	Kd [2, 4]: 884 ± 70 nM
COc1cc2c(cc1OCC(F)(F)F)C(Cc1ccc3ccccc3c1)N(CC(=O)NCc1cccnc1)CC2 (centres unmarked) [Compound 15a, 2-[6-Methoxy-1-(naphthalen-2-ylmethyl)-7-(2,2,2-trifluoroethoxy)-1,2,3,4-tetrahydroisoquinolin-2-yl]-N-(pyridin-3-ylmethyl)acetamide]	1750 ± 230 nM	29.5 ± 2.2 nM	59	–	–
COc1ccc(CC2c3cc(N(C)C)c(OC)cc3CCN2CC(=O)NCc2ccccc2)cc1N(C)C (centres unmarked) [Compound 39, N-Benzyl-2-[7-(dimethylamino)-1-{[3-(dimethylamino)-4-methoxyphenyl]methyl}-6-methoxy-1,2,3,4-tetrahydroisoquinolin-2-yl]acetamide]	857 ± 220 nM	7.6 ± 2.8 nM	113	–	–
Cc1nc2ccc(NC(=O)Nc3ccnc4cccnc34)cc2o1 [SB334867]	–	–	–	–	selectivity over OX2 [3]: 50 ×; selectivity over OX2 ([3]; listed as 3): ~ 50 ×; IC50 ([3]; read-out: IC50 (OX1), commonly used OX1 antagonist): 40 nM
COc1cc2c(cc1OCC(F)(F)F)C(Cc1ccc(C)c(C)c1)N(CC(=O)NCc1cccnc1)CC2 (centres unmarked) [Compound 15b, 2-{1-[(3,4-Dimethylphenyl)methyl]-6-methoxy-7-(2,2,2-trifluoroethoxy)-1,2,3,4-tetrahydroisoquinolin-2-yl}-N-(pyridin-3-ylmethyl)acetamide]	1360 ± 150 nM	20.4 ± 2.9 nM	67	–	–
